Test results published in the NIST ThermoML archive (doi:10.1016/j.fluid.2005.07.017).

Experiment: xn = mol fraction of the nth substance listed
Details: Liquid, Vibrating tube method

c1ccsc1 [thiophene] + O=C=O
Details | mass density [kg/m3]
293.15 K, 101 kPa, x2 = 0 | 1063.59
303.15 K, 101 kPa, x2 = 0 | 1051.55
313.06 K, 7053 kPa, x2 = 0.5661 | 983.33
313.06 K, 8092 kPa, x2 = 0.5661 | 985.63
313.06 K, 8911 kPa, x2 = 0.5661 | 987.46
313.06 K, 10009 kPa, x2 = 0.5661 | 989.71
313.06 K, 11009 kPa, x2 = 0.5661 | 991.78
313.06 K, 11980 kPa, x2 = 0.5661 | 993.76
313.06 K, 13003 kPa, x2 = 0.5661 | 995.81
313.06 K, 13999 kPa, x2 = 0.5661 | 997.77
313.06 K, 15006 kPa, x2 = 0.5661 | 999.68
313.06 K, 15996 kPa, x2 = 0.5661 | 1001.53
313.06 K, 17015 kPa, x2 = 0.5661 | 1003.44
313.06 K, 17998 kPa, x2 = 0.5661 | 1005.25
313.06 K, 19007 kPa, x2 = 0.5661 | 1007.09
313.07 K, 4997 kPa, x2 = 0.199 | 1030.05
313.07 K, 6011 kPa, x2 = 0.199 | 1031.17
313.07 K, 7011 kPa, x2 = 0.199 | 1032.32
313.07 K, 8006 kPa, x2 = 0.199 | 1033.43
313.07 K, 9032 kPa, x2 = 0.199 | 1034.56
313.07 K, 10022 kPa, x2 = 0.199 | 1035.65
313.07 K, 11026 kPa, x2 = 0.199 | 1036.74
313.07 K, 12001 kPa, x2 = 0.199 | 1037.83
313.07 K, 13018 kPa, x2 = 0.199 | 1038.9
313.07 K, 13993 kPa, x2 = 0.199 | 1039.92
313.07 K, 14989 kPa, x2 = 0.199 | 1040.95
313.07 K, 16012 kPa, x2 = 0.199 | 1042.03
313.07 K, 17005 kPa, x2 = 0.199 | 1043.03
313.07 K, 18003 kPa, x2 = 0.199 | 1044.05
313.07 K, 19065 kPa, x2 = 0.199 | 1045.15
313.09 K, 1029 kPa, x2 = 0 | 1040.96
313.09 K, 1969 kPa, x2 = 0 | 1041.84
313.09 K, 2970 kPa, x2 = 0 | 1042.78
313.09 K, 3987 kPa, x2 = 0 | 1043.71
313.09 K, 5055 kPa, x2 = 0 | 1044.72
313.09 K, 5952 kPa, x2 = 0 | 1045.51
313.09 K, 6937 kPa, x2 = 0 | 1046.43
313.09 K, 8032 kPa, x2 = 0 | 1047.39
313.09 K, 9218 kPa, x2 = 0 | 1048.44
313.09 K, 10045 kPa, x2 = 0 | 1049.18
313.09 K, 11012 kPa, x2 = 0 | 1050.03
313.09 K, 12014 kPa, x2 = 0 | 1050.9
313.09 K, 12995 kPa, x2 = 0 | 1051.74
313.09 K, 13961 kPa, x2 = 0 | 1052.59
313.09 K, 14970 kPa, x2 = 0 | 1053.43
313.09 K, 15953 kPa, x2 = 0 | 1054.26
313.09 K, 17004 kPa, x2 = 0 | 1055.16
313.09 K, 18003 kPa, x2 = 0 | 1055.95
313.09 K, 18904 kPa, x2 = 0 | 1056.76
313.13 K, 9091 kPa, x2 = 0.9217 | 798.81
313.13 K, 10071 kPa, x2 = 0.9217 | 813.05
313.13 K, 11026 kPa, x2 = 0.9217 | 824.67
313.13 K, 12059 kPa, x2 = 0.9217 | 836.13
313.13 K, 13037 kPa, x2 = 0.9217 | 845.52
313.13 K, 14012 kPa, x2 = 0.9217 | 854.21
313.13 K, 15001 kPa, x2 = 0.9217 | 862.38
313.13 K, 16014 kPa, x2 = 0.9217 | 870.06
313.13 K, 17035 kPa, x2 = 0.9217 | 877.41
313.13 K, 18056 kPa, x2 = 0.9217 | 884.26
313.13 K, 19024 kPa, x2 = 0.9217 | 890.25
313.13 K, 19849 kPa, x2 = 0.9217 | 895.22
313.13 K, 20858 kPa, x2 = 0.9217 | 901.01
313.13 K, 21968 kPa, x2 = 0.9217 | 907.04
313.13 K, 23020 kPa, x2 = 0.9217 | 912.42
313.13 K, 24013 kPa, x2 = 0.9217 | 917.38
313.13 K, 25004 kPa, x2 = 0.9217 | 921.98
313.14 K, 5783 kPa, x2 = 0.3818 | 1008.02
313.14 K, 6953 kPa, x2 = 0.3818 | 1010.44
313.14 K, 7991 kPa, x2 = 0.6996 | 974.06
313.14 K, 8014 kPa, x2 = 0.3818 | 1012.13
313.14 K, 9021 kPa, x2 = 0.3818 | 1013.7
313.14 K, 9112 kPa, x2 = 0.6996 | 977.19
313.14 K, 9872 kPa, x2 = 0.6996 | 979.01
313.14 K, 9948 kPa, x2 = 0.3818 | 1015.07
313.14 K, 10945 kPa, x2 = 0.3818 | 1016.6
313.14 K, 10946 kPa, x2 = 0.6996 | 981.56
313.14 K, 11951 kPa, x2 = 0.6996 | 983.92
313.14 K, 12015 kPa, x2 = 0.3818 | 1018.22
313.14 K, 13025 kPa, x2 = 0.3818 | 1019.65
313.14 K, 13033 kPa, x2 = 0.6996 | 986.45
313.14 K, 13973 kPa, x2 = 0.3818 | 1021.04
313.14 K, 13991 kPa, x2 = 0.6996 | 988.63
313.14 K, 14931 kPa, x2 = 0.6996 | 990.71
313.14 K, 15006 kPa, x2 = 0.3818 | 1022.52
313.14 K, 15988 kPa, x2 = 0.6996 | 993.02
313.14 K, 15992 kPa, x2 = 0.3818 | 1023.89
313.14 K, 16994 kPa, x2 = 0.6996 | 995.2
313.14 K, 17012 kPa, x2 = 0.3818 | 1025.32
313.14 K, 18022 kPa, x2 = 0.6996 | 997.41
313.14 K, 18039 kPa, x2 = 0.3818 | 1026.72
313.14 K, 18908 kPa, x2 = 0.3818 | 1027.86
313.15 K, 101 kPa, x2 = 0 | 1039.32
322.95 K, 5076 kPa, x2 = 0.199 | 1016.5
322.95 K, 6015 kPa, x2 = 0.199 | 1017.63
322.95 K, 7042 kPa, x2 = 0.199 | 1018.88
322.95 K, 8054 kPa, x2 = 0.199 | 1020.1
322.95 K, 9012 kPa, x2 = 0.199 | 1021.25
322.95 K, 9975 kPa, x2 = 0.199 | 1022.38
322.95 K, 11019 kPa, x2 = 0.199 | 1023.61
322.95 K, 12001 kPa, x2 = 0.199 | 1024.72
322.95 K, 12978 kPa, x2 = 0.199 | 1025.86
322.95 K, 14026 kPa, x2 = 0.199 | 1027.05
322.95 K, 15010 kPa, x2 = 0.199 | 1028.15
322.95 K, 16019 kPa, x2 = 0.199 | 1029.28
322.95 K, 17005 kPa, x2 = 0.199 | 1030.36
322.95 K, 18005 kPa, x2 = 0.199 | 1031.46
